Data on 18 compounds can be found in US11466005B2, “Tricyclic compounds” (JACOBIO PHARMACEUTICALS CO., LTD., priority 2018, dated 2022).

SMILES strings stand for the structures.

One assay addresses BRD4(BD1) (Homo sapiens (Human), UniProt O60885). Kind of assay: BRD4(BD1) biochemical binding assay (HTRF). Conditions: biotinylated H4 derived acetylated peptide. The procedure: 1. BRD4(BD1) Binding Assays
The BRD4(BD1) biochemical binding assay was performed by Sundia MediTech Co. Ltd. in 384-well white plate (OptiPlate-384, PerkinElmer) using HTRF technology.
Briefly, 20 nL of compounds were transferred to the 384-well plate by Echo® 550 liquid handler (Labcyte, USA), then 5 μL of BRD4(BD1) (Reaction Biology Company, RD-11-157) solution or the assay buffer was added to each well. After incubating at RT for 15 min, 5 μL of the biotinylated H4 derived acetylated peptide (synthesized by GL Biochem (Shanghai) Ltd) and 10 μL of the detection solution (Cisbio Assay) were added to each well. After incubating for 1 h at RT, the HTRF signal was measure at 615 nm and 665 nm using the EnVision Multilabel Plate Reader (PerkinElmer, USA). Results were analyzed with a two-wavelength signal ratio: intensity (665 nm)/intensity (615 nm). The inhibition percentage in the presence of the compound was calculated according to the equation, Percent inhibition=(Max−Signal)/(Max−Min)*100%. Fit the data in GraphPad Prism V5.0 software (San Diego, Calif.) to obtain IC50 values with nonlinear regression analysis using equation, Y=Bottom+(Top−Bottom)/(1+10^((Log IC50−X)×HillSlope), where Y stands for inhibition percentage and X stands for compound concentration.

In a further assay the test system is MV-4-11 cells. Description: MV-4-11 cell proliferation assay (MTS). It counts as cell-based. Conditions: Homo sapiens, MV4-11, 72 h, 3 days culture. As for the experimental part:
2. Cell Proliferation Assay
MV-4-11 cell proliferation analysis was conducted by the MIS (3-(4,5-dimethylthiazol-2-yl)-5-(3-carboxymethoxyphenyl)-2-(4-sulfophenyl)-2H-tetrazolium, inner salt) assay. Briefly, MV-4-11 cells will be cultured in IMDM (Iscove's Modified Dubecco's Medium) medium supplemented with 10% (v/v) FBS (fetal bovine serum), under the temperature of 37° C., […] and 95% humidity. The cells will be harvested respectively during the logarithmic growth period and counted with hemocytometer. The cell viability is over […] by trypan blue exclusion. Adjust MV-4-11 cells concentrations to 1.2×10^5 cells/mL with complete medium. Add 100 μL cell suspensions to 96-well plates (triplicates for each cell concentration), the final cell densities are 1.2×10^4 cells/well. The next day, dissolve the test compound with DMSO as stock solution. Dispense 5 μL of the stock solution in 1 mL culture media and add 25 μL drug media into 96-well plates. After serially diluting with culture media, the final concentration of the compound will be 0, 0.03, 0.1, 0.3, 1, 3, 10, 30, 100 nM. The plates will be cultured for 3 days, then measured by means of MTS assay. Add PMS (phenazinium methosulfate) solution to MITS solution (1:20) immediately before addition to the culture plate containing cells. Pipet 20 μL of the combined MTS/PMS Solution into each well of the 96 well assay plate containing 100 μL of cells in culture medium. Incubate the plate for 1-4 hours at 37° C. in a humidified, 5% CO2 atmosphere. Record the absorbance at 490 nm using a microplate spectrophotometer (Envision®, PeikinElmer). Fit the data using GraphPad 5.0 and obtain IC50 values.

In the case of `Cc1noc(C)c1-c1cnc2c3c(c(C(C)(C)O)nn3C)n([C@H](c3ccccc3)C3CCOCC3)c2c1` [Compound 1, (S)-2-(6-(3,5-dimethylisoxazol-4-yl)-1-methyl-4-(phenyl(tetrahydro-2H-pyran-4-yl)methyl)-1,4-dihydropyrazolo[3′,4′:4,5]pyrrolo[3,2-b]pyridin-3-yl)propan-2-ol], the IC50 on BRD4(BD1) is 0.48 nM; with MV-4-11 cells, 0.89 nM. Turning to `Cc1noc(C)c1-c1cnc2c3c(c(C(C)(C)O)nn3C)n([C@H](c3ncccc3F)C3CCOCC3)c2c1` [Compound 2, (S)-2-(6-(3,5-dimethylisoxazol-4-yl)-4-((3-fluoropyridin-2-yl)(tetrahydro-2H-pyran-4-yl)methyl)-1-methyl-1,4-dihydropyrazolo[3′,4′:4,5]pyrrolo[3,2-b]pyridin-3-yl)propan-2-ol], the concentration for half-maximal inhibition (IC50) on BRD4(BD1) stood at 0.35 nM; with MV-4-11 cells, 0.72 nM.

For `Cc1nnn(C)c1-c1cnc2c3c(c(C(C)(C)O)nn3C)n(C(CCC(F)(F)F)c3ccccc3)c2c1` (stereo not drawn) [Compound 3, 2-(6-(1,4-Dimethyl-1H-1,2,3-triazol-5-yl)-1-methyl-4-(4,4,4-trifluoro-1-phenylbutyl)-1,4-dihydropyrazolo[3′,4′:4,5]pyrrolo[3,2-b]pyridin-3-yl)propan-2-ol], the IC50 at BRD4(BD1) was 0.66 nM; in the assay on MV-4-11 cells, 6.06 nM. For `Cc1nnn(C)c1-c1cnc2c3c(c(C(C)(C)O)nn3C)n(C(CCC(F)(F)F)c3ncccc3F)c2c1` (stereo not drawn) [Compound 4, 2-(6-(1,4-Dimethyl-1H-1,2,3-triazol-5-yl)-1-methyl-4-(4,4,4-trifluoro-1-(3-fluoropyridin-2-yl)butyl)-1,4-dihydropyrazolo[3′,4′:4,5]pyrrolo[3,2-b]pyridin-3-yl)propan-2-ol] the same measures were 0.57 nM and 3.13 nM. As for `Cc1cccnc1C(C1CCOCC1)n1c2cc(-c3c(C)nnn3C)cnc2c2c1c(C(C)(C)O)nn2C` (stereo not drawn) [Compound 5, 2-(6-(1,4-Dimethyl-1H-1,2,3-triazol-5-yl)-1-methyl-4-((3-methylpyridin-2-yl)(tetrahydro-2H-pyran-4-yl)methyl)-1,4-dihydropyrazolo[3′,4′:4,5]pyrrolo[3,2-b]pyridin-3-yl)propan-2-ol], the IC50 worked out at 0.59 nM on BRD4(BD1) and 1.24 nM in the assay with MV-4-11 cells.

In the case of `Cc1nnn(C)c1-c1cnc2c3c(c(C(C)(C)O)nn3C)n([C@H](c3ccccc3)C3CCOCC3)c2c1` [Compound 6, (S)-2-(6-(1,4-dimethyl-1H-1,2,3-triazol-5-yl)-1-methyl-4-(phenyl(tetrahydro-2H-pyran-4-yl)methyl)-1,4-dihydropyrazolo[3′,4′:4,5]pyrrolo[3,2-b]pyridin-3-yl)propan-2-ol], the IC50 at BRD4(BD1) turned out to be 0.49 nM; with MV-4-11 cells, 1.1 nM.

Consider `Cc1nnn(C)c1-c1cnc2c3c(c(C(C)(C)O)nn3C)n([C@H](c3ncccc3F)C3CCOCC3)c2c1` [Compound 7, (S)-2-(6-(1,4-dimethyl-1H-1,2,3-triazol-5-yl)-4-((3-fluoropyridin-2-yl)(tetrahydro-2H-pyran-4-yl)methyl)-1-methyl-1,4-dihydropyrazolo[3′,4′:4,5]pyrrolo[3,2-b]pyridin-3-yl)propan-2-ol], for which the IC50 was 0.97 nM at BRD4(BD1) and 0.7 nM with MV-4-11 cells. In the assay with MV-4-11 cells, `COC(=O)c1nn(C)c2c3ncc(-c4c(C)nnn4C)cc3n([C@H](c3ncccc3F)C3CCOCC3)c12` [Compound 7-2, (S)-Methyl 6-(1,4-dimethyl-1H-1,2,3-triazol-5-yl)-4-((3-fluoropyridin-2-yl)(tetrahydro-2H-pyran-4-yl)methyl)-1-methyl-1,4-dihydropyrazolo[3′,4′:4,5]pyrrolo[3,2-b]pyridine-3-carboxylate] came in with an IC50 of 1.11 nM. `Cc1cccnc1C(C1CCOCC1)n1c2cc(-c3c(C)noc3C)cnc2c2c1c(C(C)(C)O)nn2C` (stereo not drawn) [Compound 8, 2-(6-(3,5-dimethylisoxazol-4-yl)-1-methyl-4-((3-methylpyridin-2-yl)(tetrahydro-2H-pyran-4-yl)methyl)-1,4-dihydropyrazolo[3′,4′:4,5]pyrrolo[3,2-b]pyridin-3-yl)propan-2-ol]: the values for the IC50 on BRD4(BD1) and with MV-4-11 cells were 12 nM and 31.6 nM, respectively. For `Cc1ccccc1C(C1CCOCC1)n1c2cc(-c3c(C)noc3C)cnc2c2c1c(C(C)(C)O)nn2C` (stereo not drawn) [Compound 9, 2-(6-(3,5-dimethylisoxazol-4-yl)-1-methyl-4-((tetrahydro-2H-pyran-4-yl)(o-tolyl)methyl)-1,4-dihydropyrazolo[3′,4′:4,5]pyrrolo[3,2-b]pyridin-3-yl)propan-2-ol] the same measures were 0.99 nM and 5.01 nM. For `Cc1nnn(C)c1-c1cnc2c3c(c(C(N)=O)nn3C)n(C(c3ncccc3F)C3CCOCC3)c2c1` (stereo not drawn) [Compound 21, 6-(1,4-Dimethyl-1H-1,2,3-triazol-5-yl)-4-((3-fluoropyridin-2-yl)(tetrahydro-2H-pyran-4-yl)methyl)-1-methyl-1,4-dihydropyrazolo[3′,4′:4,5]pyrrolo[3,2-b]pyridine-3-carboxamide], in the assay on MV-4-11 cells, the 50% inhibitory concentration (IC50) turned out to be 0.77 nM. The same measure, in the same setting: next, `COc1ccncc1C(C1CCOCC1)n1c2cc(-c3c(C)nnn3C)cnc2c2c1c(C(C)(C)O)nn2C` (stereo not drawn) [Compound 25, 2-(6-(1,4-dimethyl-1H-1,2,3-triazol-5-yl)-4-((4-methoxypyridin-3-yl)(tetrahydro-2H-pyran-4-yl)methyl)-1-methyl-1,4-dihydropyrazolo[3′,4′:4,5]pyrrolo[3,2-b]pyridin-3-yl)propan-2-ol]: 8.25 nM. As for `Cc1cc(F)cc(C)c1C(C)n1c2cc(-c3c(C)nnn3C)cnc2c2c1c(C(C)(C)O)nn2C` (stereo not drawn) [Compound 27, 2-(6-(1,4-Dimethyl-1H-1,2,3-triazol-5-yl)-4-(1-(4-fluoro-2,6-dimethylphenyl)ethyl)-1-methyl-1,4-dihydropyrazolo[3′,4′:4,5]pyrrolo[3,2-b]pyridin-3-yl)propan-2-ol], the IC50 at BRD4(BD1) was determined as 17 nM. In turn, `Cc1nnn(C)c1-c1cnc2c3c(c(NS(C)(=O)=O)nn3C)n([C@H](c3ccccc3)C3CCOCC3)c2c1` [Compound 28, (S)—N-(6-(1,4-dimethyl-1H-1,2,3-triazol-5-yl)-1-methyl-4-(phenyl(tetrahydro-2H-pyran-4-yl)methyl)-1,4-dihydropyrazolo[3′,4′:4,5]pyrrolo[3,2-b]pyridin-3-yl)methanesulfonamide] registered a 50% inhibitory concentration (IC50) with MV-4-11 cells of 10.5 nM. For the compound `Cc1nnn(C)c1-c1cnc2c3c(c(C(C)(C)O)nn3C)n([C@@H](c3ncccc3F)C3CCOCC3)c2c1` [Compound 30, (R)-2-(6-(1,4-dimethyl-1H-1,2,3-triazol-5-yl)-4-((3-fluoropyridin-2-yl)(tetrahydro-2H-pyran-4-yl)methyl)-1-methyl-1,4-dihydropyrazolo[3′,4′:4,5]pyrrolo[3,2-b]pyridin-3-yl)propan-2-ol], the IC50 on BRD4(BD1) stood at 3 nM. Same read-out and setting: with `Cc1noc(C)c1-c1cnc2c3c(c(C(C)(C)O)nn3C)n([C@@H](c3ncccc3F)C3CCOCC3)c2c1` [Compound 31, (R)-2-(6-(3,5-dimethylisoxazol-4-yl)-4-((3-fluoropyridin-2-yl)(tetrahydro-2H-pyran-4-yl)methyl)-1-methyl-1,4-dihydropyrazolo[3′,4′:4,5]pyrrolo[3,2-b]pyridin-3-yl)propan-2-ol] the figure was 4.6 nM. Same read-out and setting: with `Cc1nnn(C)c1-c1cnc2c3c(c(CS(C)(=O)=O)nn3C)n(C(c3ccccc3)C3CCOCC3)c2c1` (stereo not drawn) [Compound 33, 6-(1,4-dimethyl-1H-1,2,3-triazol-5-yl)-1-methyl-3-((methylsulfonyl)methyl)-4-(phenyl(tetrahydro-2H-pyran-4-yl)methyl)-1,4-dihydropyrazolo[3′,4′:4,5]pyrrolo[3,2-b]pyridine] the figure was 4.67 nM.

In the case of `CC(=O)N(c1nn(C)c2c3ncc(-c4c(C)nnn4C)cc3n(C(c3ccccc3)C3CCOCC3)c12)S(C)(=O)=O` (stereo not drawn) [Compound 35, N-(6-(1,4-dimethyl-1H-1,2,3-triazol-5-yl)-1-methyl-4-(phenyl(tetrahydro-2H-pyran-4-yl)methyl)-1,4-dihydropyrazolo[3′,4′:4,5]pyrrolo[3,2-b]pyridin-3-yl)-N-(methylsulfonyl)acetamide], the 50% inhibitory concentration (IC50) in the assay on MV-4-11 cells was 15.5 nM.
